From PubChem BioAssay (NCI)
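The compound was tested at five concentrations on cells cultured in 96-well plates, with a 48-hour exposure period. GI50 = concentration required for 50% inhibition of growth. TGI marks complete inhibition of growth.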

Legend:
Assay in all cases: NCI tumour cell line growth inhibition, 48 h
HCT-15 colon = tested on: HCT-15 colon
OVCAR-4 ovarian = tested on: OVCAR-4 ovarian
UACC-257 melanoma = tested on: UACC-257 melanoma
SR leukemia = tested on: SR leukemia
HCT-116 colon = tested on: HCT-116 colon
OVCAR-5 ovarian = tested on: OVCAR-5 ovarian
CAKI-1 renal = tested on: CAKI-1 renal
SK-OV-3 ovarian = tested on: SK-OV-3 ovarian
TK-10 renal = tested on: TK-10 renal
EKVX NSCLC = tested on: EKVX NSCLC
A549 NSCLC = tested on: A549 NSCLC
MALME-3M melanoma = tested on: MALME-3M melanoma
U251 CNS = tested on: U251 CNS
LOX IMVI melanoma = tested on: LOX IMVI melanoma
RPMI-8226 leukemia = tested on: RPMI-8226 leukemia
MCF7 breast = tested on: MCF7 breast
786-0 renal = tested on: 786-0 renal
MOLT-4 leukemia = tested on: MOLT-4 leukemia
BT-549 breast = tested on: BT-549 breast
DU-145 prostate = tested on: DU-145 prostate
HCC-2998 colon = tested on: HCC-2998 colon
UO-31 renal = tested on: UO-31 renal
SK-MEL-2 melanoma = tested on: SK-MEL-2 melanoma
HS 578T breast = tested on: HS 578T breast
MDA-MB-468 breast = tested on: MDA-MB-468 breast
UACC-62 melanoma = tested on: UACC-62 melanoma
SF-539 CNS = tested on: SF-539 CNS
SN12C renal = tested on: SN12C renal
MDA-MB-231 breast = tested on: MDA-MB-231 breast
NCI/ADR-RES ovarian = tested on: NCI/ADR-RES ovarian
T-47D breast = tested on: T-47D breast
OVCAR-8 ovarian = tested on: OVCAR-8 ovarian
HOP-92 NSCLC = tested on: HOP-92 NSCLC
MDA-MB-435 = tested on: MDA-MB-435
NCI-H226 lung = tested on: NCI-H226 lung
NCI-H460 lung = tested on: NCI-H460 lung
SF-295 CNS = tested on: SF-295 CNS
NCI-H522 lung = tested on: NCI-H522 lung
KM12 colon = tested on: KM12 colon
SF-268 CNS = tested on: SF-268 CNS
ACHN renal = tested on: ACHN renal
RXF 393 renal = tested on: RXF 393 renal
SNB-75 CNS = tested on: SNB-75 CNS
M14 melanoma = tested on: M14 melanoma
SK-MEL-5 melanoma = tested on: SK-MEL-5 melanoma
PC-3 prostate = tested on: PC-3 prostate
CCRF-CEM leukemia = tested on: CCRF-CEM leukemia
SW-620 colon = tested on: SW-620 colon
HOP-62 NSCLC = tested on: HOP-62 NSCLC
NCI-H23 lung = tested on: NCI-H23 lung
K-562 leukemia = tested on: K-562 leukemia
HL-60(TB) leukemia = tested on: HL-60(TB) leukemia
COLO 205 colon = tested on: COLO 205 colon
A498 renal = tested on: A498 renal
SNB-19 CNS = tested on: SNB-19 CNS
HT29 colon = tested on: HT29 colon
SK-MEL-28 melanoma = tested on: SK-MEL-28 melanoma
IGROV1 ovarian = tested on: IGROV1 ovarian
OVCAR-3 ovarian = tested on: OVCAR-3 ovarian

Q: Which results are given for `Fc1cccc(CNc2nc(SCCN3CCOCC3)nc3c2cnn3CC(Cl)c2ccc(Br)cc2)c1` (stereo not drawn)?
A: GI50 (HCT-15 colon): 1940 nM; TGI (HCT-15 colon): 4.5 µM; GI50 (OVCAR-4 ovarian): 8.81 µM; TGI (OVCAR-4 ovarian): > 100 µM; GI50 (UACC-257 melanoma): 13.9 µM; TGI (UACC-257 melanoma): > 100 µM; GI50 (SR leukemia): 2500 nM; TGI (SR leukemia): > 100 µM; GI50 (HCT-116 colon): 4.82 µM; TGI (HCT-116 colon): > 100 µM; GI50 (OVCAR-5 ovarian): 14.1 µM; TGI (OVCAR-5 ovarian): > 100 µM; GI50 (CAKI-1 renal): 5.07 µM; TGI (CAKI-1 renal): > 100 µM; GI50 (SK-OV-3 ovarian): > 100 µM; TGI (SK-OV-3 ovarian): > 100 µM; GI50 (TK-10 renal): 43.8 µM; TGI (TK-10 renal): > 100 µM; GI50 (EKVX NSCLC): 8.05 µM; TGI (EKVX NSCLC): > 100 µM; GI50 (A549 NSCLC): 4.88 µM; TGI (A549 NSCLC): > 100 µM; GI50 (MALME-3M melanoma): 3.02 µM; TGI (MALME-3M melanoma): 24.9 µM; GI50 (U251 CNS): 6.12 µM; TGI (U251 CNS): > 100 µM; GI50 (LOX IMVI melanoma): 2900 nM; TGI (LOX IMVI melanoma): 11.6 µM; GI50 (RPMI-8226 leukemia): 4.33 µM; TGI (RPMI-8226 leukemia): > 100 µM; GI50 (MCF7 breast): 4.61 µM; TGI (MCF7 breast): > 100 µM; GI50 (786-0 renal): 5.7 µM; TGI (786-0 renal): > 100 µM; GI50 (MOLT-4 leukemia): 2580 nM; TGI (MOLT-4 leukemia): 15.7 µM; GI50 (BT-549 breast): 21.2 µM; TGI (BT-549 breast): 57.4 µM; GI50 (DU-145 prostate): 39 µM; TGI (DU-145 prostate): > 100 µM; GI50 (HCC-2998 colon): 3.46 µM; TGI (HCC-2998 colon): > 100 µM; GI50 (UO-31 renal): 5.11 µM; TGI (UO-31 renal): > 100 µM; GI50 (SK-MEL-2 melanoma): 11.9 µM; TGI (SK-MEL-2 melanoma): 37.5 µM; GI50 (HS 578T breast): 8.83 µM; TGI (HS 578T breast): > 100 µM; GI50 (MDA-MB-468 breast): 2620 nM; TGI (MDA-MB-468 breast): 8.48 µM; GI50 (UACC-62 melanoma): 8.76 µM; TGI (UACC-62 melanoma): 23.8 µM; GI50 (SF-539 CNS): 4.58 µM; TGI (SF-539 CNS): > 100 µM; GI50 (SN12C renal): 12 µM; TGI (SN12C renal): > 100 µM; GI50 (MDA-MB-231 breast): 4.25 µM; TGI (MDA-MB-231 breast): 52.6 µM; GI50 (NCI/ADR-RES ovarian): 4.52 µM; TGI (NCI/ADR-RES ovarian): > 100 µM; GI50 (T-47D breast): 3.28 µM; TGI (T-47D breast): > 100 µM; GI50 (OVCAR-8 ovarian): 10.7 µM; TGI (OVCAR-8 ovarian): > 100 µM; GI50 (HOP-92 NSCLC): 13.4 µM; TGI (HOP-92 NSCLC): > 100 µM; GI50 (MDA-MB-435): 11.5 µM; TGI (MDA-MB-435): > 100 µM; GI50 (NCI-H226 lung): 13.2 µM; TGI (NCI-H226 lung): 98.4 µM; GI50 (NCI-H460 lung): 5.04 µM; TGI (NCI-H460 lung): > 100 µM; GI50 (SF-295 CNS): 4.16 µM; TGI (SF-295 CNS): > 100 µM; GI50 (NCI-H522 lung): 8.22 µM; TGI (NCI-H522 lung): > 100 µM; GI50 (KM12 colon): 4.81 µM; TGI (KM12 colon): > 100 µM; GI50 (SF-268 CNS): 10 µM; TGI (SF-268 CNS): > 100 µM; GI50 (ACHN renal): 5.83 µM; TGI (ACHN renal): > 100 µM; GI50 (RXF 393 renal): 2440 nM; TGI (RXF 393 renal): 21.3 µM; GI50 (SNB-75 CNS): 6.5 µM; TGI (SNB-75 CNS): > 100 µM; GI50 (M14 melanoma): 7.96 µM; TGI (M14 melanoma): > 100 µM; GI50 (SK-MEL-5 melanoma): 7.54 µM; TGI (SK-MEL-5 melanoma): 20.3 µM; GI50 (PC-3 prostate): 6.58 µM; TGI (PC-3 prostate): > 100 µM; GI50 (CCRF-CEM leukemia): 5.41 µM; TGI (CCRF-CEM leukemia): > 100 µM; GI50 (SW-620 colon): 2890 nM; TGI (SW-620 colon): 10.4 µM; GI50 (HOP-62 NSCLC): 25.8 µM; TGI (HOP-62 NSCLC): > 100 µM; GI50 (NCI-H23 lung): 17 µM; TGI (NCI-H23 lung): > 100 µM; GI50 (K-562 leukemia): 2690 nM; TGI (K-562 leukemia): > 100 µM; GI50 (HL-60(TB) leukemia): 3.85 µM; TGI (HL-60(TB) leukemia): 50.4 µM; GI50 (COLO 205 colon): 4.31 µM; TGI (COLO 205 colon): 20.5 µM; GI50 (A498 renal): 30.4 µM; TGI (A498 renal): > 100 µM; GI50 (SNB-19 CNS): 16.2 µM; TGI (SNB-19 CNS): > 100 µM; GI50 (HT29 colon): 1860 nM; TGI (HT29 colon): 3.82 µM; GI50 (SK-MEL-28 melanoma): 8.51 µM; TGI (SK-MEL-28 melanoma): > 100 µM; GI50 (IGROV1 ovarian): 34.4 µM; TGI (IGROV1 ovarian): > 100 µM; GI50 (OVCAR-3 ovarian): 53.1 µM; TGI (OVCAR-3 ovarian): > 100 µM
